Test results taken from ChEMBL document CHEMBL1201862, “PubChem BioAssay data set” (2004).
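Where inhibition never reached the appropriate level, the endpoint shown equals the highest concentration tested. Otherwise, values were interpolated linearly from a five-concentration, 48-hour dose response in 96-well plates. The concentration for 50% growth inhibition is given as GI50.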 The source made the active and inactive calls. Cut-off read from the data, not from the text of the source: active = GI50 up to about 1.1 µM and inactive = higher.

Key:
Assay in all cases: NCI tumour cell line growth inhibition, 48 h
NCI/ADR-RES = system: NCI/ADR-RES
UACC-257 = system: UACC-257
COLO 205 = system: COLO 205
LOX IMVI = system: LOX IMVI
PC-3 = system: PC-3
SNB-19 = system: SNB-19
IGROV-1 = system: IGROV-1
OVCAR-8 = system: OVCAR-8
NCI-H460 = system: NCI-H460
SK-MEL-28 = system: SK-MEL-28
CCRF-CEM = system: CCRF-CEM
SN12C = system: SN12C
HCT-116 = system: HCT-116
A498 = system: A498
HOP-92 = system: HOP-92
HOP-62 = system: HOP-62
KM12 = system: KM12
Hs-578T = system: Hs-578T
MCF7 = system: MCF7

Measured: GI50

O=C(O)c1cccc(SSc2cccc(C(=O)O)c2)c1
inactive: NCI/ADR-RES > 100 µM | UACC-257 > 100 µM | COLO 205 > 100 µM | LOX IMVI > 100 µM | PC-3 > 100 µM | SNB-19 > 100 µM | IGROV-1 > 100 µM | OVCAR-8 > 100 µM | NCI-H460 > 100 µM | SK-MEL-28 > 100 µM | CCRF-CEM 28.8 µM | SN12C > 100 µM | HCT-116 > 100 µM | A498 > 100 µM | HOP-92 > 100 µM | HOP-62 > 100 µM | KM12 > 100 µM

CCCCCCCCCCCCCCCC(=O)OCC1OC(n2cc(F)c(=O)[nH]c2=O)C(N)C(O)C1O (stereo not given)
inactive: UACC-257 20.2 µM | COLO 205 18.5 µM | LOX IMVI 17.4 µM | SNB-19 22.2 µM | IGROV-1 > 10 µM | OVCAR-8 20.5 µM | SK-MEL-28 16.9 µM | CCRF-CEM 16 µM | SN12C 18.2 µM | HCT-116 20 µM | A498 25.9 µM | HOP-92 20.1 µM | HOP-62 19.7 µM | KM12 18.6 µM

O=C1CCCCC/C1=C\c1ccc(F)cc1
inactive: UACC-257 52.2 µM | COLO 205 > 100 µM | LOX IMVI 94 µM | PC-3 > 100 µM | SNB-19 > 100 µM | IGROV-1 > 100 µM | NCI-H460 50.1 µM | SK-MEL-28 > 100 µM | CCRF-CEM 24.4 µM | SN12C > 100 µM | HCT-116 89.3 µM | A498 > 100 µM | HOP-92 61.1 µM | Hs-578T 86.1 µM | HOP-62 > 100 µM | KM12 > 100 µM

O=c1oc2ccc3ccccc3c2cc1-c1nc2ccc([N+](=O)[O-])cc2o1
inactive: NCI/ADR-RES > 80.5 µM | UACC-257 > 100 µM | COLO 205 > 100 µM | LOX IMVI 22.9 µM | PC-3 > 100 µM | SNB-19 13.8 µM | IGROV-1 28.4 µM | OVCAR-8 > 100 µM | NCI-H460 36.1 µM | SK-MEL-28 > 100 µM | CCRF-CEM 75.2 µM | SN12C 97.5 µM | HCT-116 48.6 µM | A498 38.5 µM | HOP-92 33.6 µM | Hs-578T 56.6 µM | HOP-62 10.6 µM | KM12 > 59.2 µM

COC(=O)[C@H](CCSC)NC(=O)c1ccc(CNC(=O)/C(C)=C/c2ccccc2)cc1
inactive: NCI/ADR-RES 25.9 µM | UACC-257 20.7 µM | COLO 205 > 100 µM | LOX IMVI 33.1 µM | PC-3 47 µM | SNB-19 24.7 µM | IGROV-1 50.1 µM | OVCAR-8 23.3 µM | NCI-H460 26.6 µM | SK-MEL-28 24.7 µM | CCRF-CEM > 100 µM | MCF7 80.2 µM | SN12C 88.1 µM | HCT-116 50.9 µM | A498 > 100 µM | HOP-92 25.8 µM | HOP-62 21.8 µM | KM12 82.4 µM

CCOC(=O)c1nc2cc(C(F)(F)F)ccc2nc1Nc1ccc(C(=O)OC)s1
inactive: NCI/ADR-RES 45.5 µM | UACC-257 36.5 µM | COLO 205 20.7 µM | LOX IMVI 30.5 µM | PC-3 30.7 µM | SNB-19 33.1 µM | IGROV-1 40.9 µM | OVCAR-8 41.2 µM | NCI-H460 33 µM | SK-MEL-28 45 µM | CCRF-CEM 30.6 µM | HCT-116 35.3 µM | A498 40.9 µM | HOP-92 17.9 µM | Hs-578T 29.8 µM | HOP-62 33.6 µM | KM12 38.7 µM

Cc1ccc(NC(=O)c2cc3cc(/N=N/c4ccccc4C(=O)O)ccc3oc2=O)cc1
inactive: UACC-257 20.3 µM | COLO 205 35.3 µM | LOX IMVI 35.2 µM | SNB-19 28.4 µM | IGROV-1 41.2 µM | OVCAR-8 58.7 µM | NCI-H460 49.3 µM | SK-MEL-28 37.5 µM | CCRF-CEM 30.2 µM | SN12C 54.6 µM | HCT-116 28.4 µM | HOP-62 > 100 µM | KM12 44.5 µM

Nc1cc(N2CCCC2)nc(=O)n1Cc1ccccc1
inactive: NCI/ADR-RES > 100 µM | UACC-257 > 100 µM | COLO 205 > 100 µM | LOX IMVI > 100 µM | PC-3 > 100 µM | SNB-19 > 100 µM | IGROV-1 > 100 µM | OVCAR-8 > 100 µM | NCI-H460 > 100 µM | CCRF-CEM > 100 µM | MCF7 > 100 µM | SN12C > 100 µM | HCT-116 > 100 µM | HOP-92 > 100 µM | HOP-62 > 100 µM | KM12 > 100 µM

COC(=O)/C=C1/OC(c2ccccc2)=C(C)C1=O
inactive: NCI/ADR-RES 20.9 µM | COLO 205 17.5 µM | LOX IMVI 1.28 µM | SNB-19 16.4 µM | IGROV-1 14.1 µM | OVCAR-8 6.08 µM | NCI-H460 20 µM | SK-MEL-28 16.8 µM | CCRF-CEM 3.62 µM | MCF7 3.81 µM | HCT-116 4.18 µM | A498 18.7 µM | HOP-92 13.2 µM | Hs-578T 27.5 µM | HOP-62 16 µM | KM12 14.1 µM
